Source: patent US20250041278A1, “TLR8 AGONIST FOR MODULATING IMMUNE RESPONSE” (The Children's Medical Center Corporation, priority 2021, published 2025)

Test system: human monocytic THP-1 cell line
Assay: High throughput screen in THP-1 cells (NF-kB/IRF-inducing and/or leukocyte adherence-inducing activity)
Type: cell-based
Excerpt: FIGS. 1A-1D. Discovery of PVP-179 in a human PBMC high-throughput screen. FIG. 1A: A graphical overview depicting screen approach. From a high-throughput screen previously conducted, 310 molecules were identified to be activators of either THP-1 cells (monocyte cell line) or primary human adult peripheral blood mononuclear cells (PBMCs). These 310 molecules were assembled into a stimulation plate and then applied to the PBMCs of 4 elderly donors (cultured with 10% autologous plasma). […] Z scores were averaged across all four elderly donors. The Z score and chemical structure for PVP-179 are indicated. FIG. 1C: Human adult or elderly PBMCs (cultured with 10% autologous plasma) were stimulated with PVP-179 in a two-point concentration titration manner. After 18 hours of incubation, supernatant was processed for ELISA-based measurement of TNF production. N=4 donors. FIG. 1D: As in FIG. 1C, the supernatants were collected, and 14 cytokines were measured by multiplex assay. […] N=4 donors each.
In a previous high throughput screen (HTS), a number of hit molecules were identified as potentially activating human leukocytes. […] A separate pilot screen of 9,000 of the molecules for TNF-inducing activity in adult human peripheral blood mononuclear cells (PBMCs) subsequently identified 133 molecules. […]

## CCCCn1c(/N=C/c2nc3ccccc3n2C)nc2ccccc21 [PVP-179]
  hit call in original THP-1 screen: positive hit
